The target of assay [1] is T1, TLR9 (Homo sapiens, UniProt Q9NR96).
T1 construct: lymphocytes, monocytes and dendritic cells that express TLR7, TLR8 and TLR9; endogenous in cells; host or cells: human PBMCs from healthy donors
T1 sequence (Q9NR96 26-1032): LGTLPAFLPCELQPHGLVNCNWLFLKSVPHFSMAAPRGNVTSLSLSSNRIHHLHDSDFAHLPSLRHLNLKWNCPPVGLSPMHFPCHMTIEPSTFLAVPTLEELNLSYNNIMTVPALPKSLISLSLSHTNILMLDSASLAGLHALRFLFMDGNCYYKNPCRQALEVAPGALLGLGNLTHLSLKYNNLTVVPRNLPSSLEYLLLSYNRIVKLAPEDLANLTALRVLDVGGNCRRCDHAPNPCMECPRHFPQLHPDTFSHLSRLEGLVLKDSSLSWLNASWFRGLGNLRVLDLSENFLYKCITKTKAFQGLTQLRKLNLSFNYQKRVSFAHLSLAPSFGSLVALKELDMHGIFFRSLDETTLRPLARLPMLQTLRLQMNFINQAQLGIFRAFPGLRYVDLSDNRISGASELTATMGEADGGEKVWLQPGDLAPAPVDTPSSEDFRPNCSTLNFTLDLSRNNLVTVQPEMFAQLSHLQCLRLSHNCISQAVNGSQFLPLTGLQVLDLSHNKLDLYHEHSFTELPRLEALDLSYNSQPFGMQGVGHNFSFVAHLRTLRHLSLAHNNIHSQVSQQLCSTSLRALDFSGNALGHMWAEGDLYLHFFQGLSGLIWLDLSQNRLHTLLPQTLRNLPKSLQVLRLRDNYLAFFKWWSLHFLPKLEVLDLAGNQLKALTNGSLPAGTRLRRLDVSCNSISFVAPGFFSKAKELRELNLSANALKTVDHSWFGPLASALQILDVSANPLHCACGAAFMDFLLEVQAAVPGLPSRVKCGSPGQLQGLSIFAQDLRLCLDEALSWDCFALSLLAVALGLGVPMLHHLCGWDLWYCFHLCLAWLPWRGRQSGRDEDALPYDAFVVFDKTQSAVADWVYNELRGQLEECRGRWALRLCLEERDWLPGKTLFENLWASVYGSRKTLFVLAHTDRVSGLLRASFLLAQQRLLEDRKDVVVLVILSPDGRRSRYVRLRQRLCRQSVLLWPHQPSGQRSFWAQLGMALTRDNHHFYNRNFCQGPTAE
Nature of the assay: Human PBMC cell-based assay, TLR9 agonist ODN-2216 stimulation, cytokine (IL-6 and IFNα) readout. The following applies: human PBMCs, ODN-2216 3 μM, 6 hours; Table 26; read-out: TLR-9 EC50. An outline of the steps: (§1)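 Cryopreserved healthy-donor PBMCs (100,000 cells/well, RPMI-1640 + 10% FBS) preincubated 1 h at 37 °C with antagonist (10-point dose response), then stimulated 6 h with GS-986 (400 nM final, TLR7) or ODN-2216 (3 μM final, TLR9). Supernatant IL-6 and IFNα measured by electrochemiluminescence immunoassay; EC50 from sigmoidal fit.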

Assay [2] deals with T2, TLR7 (Homo sapiens, UniProt Q9NYK1).
T2 construct: lymphocytes, monocytes and dendritic cells that express TLR7, TLR8 and TLR9; endogenous in cells; host or cells: human PBMCs from healthy donors
T2 sequence (Q9NYK1 27-1049): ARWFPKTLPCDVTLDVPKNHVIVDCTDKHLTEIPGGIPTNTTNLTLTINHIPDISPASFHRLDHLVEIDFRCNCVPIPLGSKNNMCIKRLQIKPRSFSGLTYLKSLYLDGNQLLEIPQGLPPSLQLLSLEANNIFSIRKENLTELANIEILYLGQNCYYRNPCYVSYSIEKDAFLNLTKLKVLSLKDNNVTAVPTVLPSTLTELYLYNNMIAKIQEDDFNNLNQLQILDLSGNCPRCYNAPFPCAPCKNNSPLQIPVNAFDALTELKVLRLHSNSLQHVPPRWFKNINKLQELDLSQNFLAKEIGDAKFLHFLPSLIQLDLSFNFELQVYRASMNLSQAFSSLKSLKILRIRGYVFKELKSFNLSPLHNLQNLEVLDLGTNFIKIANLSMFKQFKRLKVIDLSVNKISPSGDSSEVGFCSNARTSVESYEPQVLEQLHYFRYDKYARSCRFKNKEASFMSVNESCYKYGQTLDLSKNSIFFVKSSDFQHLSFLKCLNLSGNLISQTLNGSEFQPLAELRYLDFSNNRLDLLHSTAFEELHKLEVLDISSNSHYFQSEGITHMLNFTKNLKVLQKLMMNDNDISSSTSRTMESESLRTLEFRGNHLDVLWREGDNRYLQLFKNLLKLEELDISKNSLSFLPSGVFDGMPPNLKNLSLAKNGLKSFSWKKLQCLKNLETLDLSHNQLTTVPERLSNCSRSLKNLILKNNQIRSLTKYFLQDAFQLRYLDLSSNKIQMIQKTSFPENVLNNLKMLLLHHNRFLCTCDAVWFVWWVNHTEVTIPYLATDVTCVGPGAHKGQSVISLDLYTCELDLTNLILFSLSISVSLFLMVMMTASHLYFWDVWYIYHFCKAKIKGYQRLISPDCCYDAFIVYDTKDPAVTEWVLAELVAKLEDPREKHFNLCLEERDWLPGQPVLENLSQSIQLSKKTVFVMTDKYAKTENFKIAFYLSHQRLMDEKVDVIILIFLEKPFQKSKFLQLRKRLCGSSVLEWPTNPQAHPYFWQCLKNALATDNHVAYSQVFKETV
Nature of the assay: Human PBMC cell-based assay, TLR7 agonist GS-986 stimulation, cytokine (IL-6 and IFNα) readout. The following applies: human PBMCs, GS-986 400 nM, 6 hours; Table 26; read-out: TLR-7 EC50. An outline of the steps: as §1

With `Cc1c(-c2ccc(C#N)c3ncccc23)[nH]c2cc(-c3ccc(N4CCNCC4)nc3)ccc12` [Example 97], the EC50 is 733 nM in assay [1] and 2.6 nM in assay [2].

On to `Cc1cc(-c2[nH]c3cc(-c4ccc(N5CCC[C@@H](N)C5)nc4)ccc3c2C)cc(C)n1` [Example 25], for which the concentration giving a half-maximal response (EC50) in assay [1] turned out to be 39.1 nM; in assay [2], 5.9 nM.

For `Cc1cc(-c2[nH]c3cc(-c4ccc(C(=O)N5CC6CNCC6C5)cc4)ccc3c2C)cc(C)n1` (stereo not shown) [Example 126], the values for the EC50 in assay [1] and in assay [2] were 294 nM and 48 nM, respectively.

With `Cc1cc(-c2[nH]c3cc(-c4cnn(CC5CCNCC5)c4)ccc3c2C)cc(C)n1` [Example 183], the EC50 in assay [1] turned out to be 785 nM; in assay [2], 323 nM.

Consider `Cc1cc(-c2[nH]c3cc(-c4ccc(N5CC[N+](CCN(C)C)(CCN(C)C)CC5)nc4)ccc3c2C)cc(C)n1` [Example 115, 1,1-bis(2-(dimethylamino)ethyl)-4-(5-(2-(2,6-dimethylpyridin-4-yl)-3-methyl-1H-indol-6-yl)pyridin-2-yl)piperazin-1-ium], for which the EC50 in assay [1] was 189 nM; in assay [2] it was 394 nM.

On to `Cc1cc(-c2[nH]c3cc(-c4ccc(S(=O)(=O)N5CCNCC5)cc4)ccc3c2C)cc(C)n1` [Example 68], for which the results for the EC50 in assay [1] and in assay [2] were 93.2 nM and 324 nM, respectively.

In the case of `Cc1cc(-c2[nH]c3cc(-c4ccc(N5CCN(C(=O)[C@@H]6CCNC6)CC5)nc4)ccc3c2C)cc(C)n1` [Example 139], the EC50 was 203 nM in assay [1] and 93.5 nM in assay [2].

In the case of `Cc1cc(-c2[nH]c3cc(-c4cn(C5CCNCC5)nn4)ccc3c2C)cc(C)n1` [Example 72, 2-(2,6-dimethylpyridin-4-yl)-3-methyl-6-(1-(piperidin-4-yl)-1H-1,2,3-triazol-4-yl)-1H-indole], the EC50 is 232 nM in assay [1] and 92 nM in assay [2].

`Cc1c(-c2ccnc(C#N)c2)[nH]c2cc(-c3ccc(N4CCNCC4)nc3)ccc12` [Example 75]: the EC50 in assay [1] was 499 nM; in assay [2], 77.3 nM.

In the case of `Cc1cc(-c2[nH]c3cc(-c4ccc(N5CCN(CC(F)(F)F)CC5)nc4)ccc3c2C)cc(C)n1` [Example 142], the EC50 was 1370 nM in assay [1] and over 1000 nM in assay [2].

For the compound `Cc1cncc(-c2[nH]c3cc(-c4ccc(N5CCNCC5)nc4)ccc3c2C)c1C` [Example 86], the EC50 in assay [1] came out at 1430 nM; in assay [2], 2670 nM.

For `Cc1cc(-c2[nH]c3cc(-c4ccn5ncnc5c4)ccc3c2C)cc(C)n1` [Example 58], the EC50 in assay [1] was determined as 1130 nM; in assay [2], 373 nM.

Consider `Cc1cc(-c2[nH]c3cc(-c4ccc(C5=CCNCC5)nc4)ccc3c2C)cc(C)n1` [Example 132, 2-(2,6-dimethylpyridin-4-yl)-3-methyl-6-(1′,2′,3′,6′-tetrahydro-[2,4′-bipyridin]-5-yl)-1H-indole], for which the EC50 stood at 10.6 nM in assay [1] and 5.1 nM in assay [2].

For `Cc1cc(-c2[nH]c3cc(-c4ccc(N5CCNCC5)nc4C)ccc3c2C)cc(C)n1` [Example 4], the EC50 in assay [1] turned out to be 153 nM; in assay [2], 26.1 nM.

`Cc1cc(-c2[nH]c3cc(-c4ccc(C(=O)N5CCC(N)CC5)cc4)ccc3c2C)cc(C)n1` [Example 125]: the EC50 amounted to 98.3 nM in assay [1] and 74.8 nM in assay [2].

For `Cc1cc(-c2[nH]c3cc(-c4cccc(C(=O)N5CC[C@H](N)C5)c4)ccc3c2C)cc(C)n1` [Example 119, (S)-(3-aminopyrrolidin-1-yl)(3-(2-(2,6-dimethylpyridin-4-yl)-3-methyl-1H-indol-6-yl)phenyl)methanone], the concentration giving a half-maximal response (EC50) in assay [1] stood at 193 nM; in assay [2], 54.1 nM.

For `Cc1cc(-c2[nH]c3cc(-c4ccc(NC5CCNCC5)nc4)ccc3c2C)cc(C)n1` [Example 24], the figures for the EC50 in assay [1] and in assay [2] were 89.6 nM and 8.3 nM, respectively.

On to `Cc1cc(-c2[nH]c3cc(-c4ccc(N5CC[C@H](N)C5)nc4)ccc3c2C)cc(C)n1` [Example 32], for which the values for the EC50 in assay [1] and in assay [2] were 37.3 nM and 17.7 nM, respectively.

For `Cc1cc(-c2[nH]c3cc(-c4ccc(N5CCN(C(=O)[C@@H]6CC(F)(F)CN6)CC5)nc4)ccc3c2C)cc(C)n1` [Example 138], the EC50 in assay [1] is 288 nM; in assay [2] it was 415 nM.

Turning to `Cc1cc(-c2[nH]c3cc(-c4ccc(C5=CCCNC5)nc4)ccc3c2C)cc(C)n1` [Example 162], the EC50 in assay [1] is 30 nM; in assay [2] it was 9.1 nM.

Take `Cc1cc(-c2[nH]c3cc(-c4cccc5c4CCNC5)ccc3c2C)cc(C)n1` [Example 62, 5-(2-(2,6-dimethylpyridin-4-yl)-3-methyl-1H-indol-6-yl)-1,2,3,4-tetrahydroisoquinoline]: the EC50 in assay [1] is 180 nM; in assay [2] it was 607 nM.

As for `Cc1cc(-c2[nH]c3cc(-c4ccc(N)nc4)ccc3c2C)cc(C)n1` [Example 5], the EC50 was 227 nM in assay [1] and 154 nM in assay [2].

Regarding `Cc1cc(-c2[nH]c3cc(-c4ccc5c(c4)CNCC5)ccc3c2C)cc(C)n1` [Example 14], the EC50 in assay [1] was 108 nM; in assay [2], 213 nM.

`Cc1cc(-c2[nH]c3cc(-c4cnc5c(c4)CNCC5)ccc3c2C)cc(C)n1` [Example 9]: the values for the EC50 in assay [1] and in assay [2] were 50.5 nM and 38.1 nM, respectively.

Regarding `Cc1cc(-c2[nH]c3cc(-c4ccc(C(=O)N5CC[C@H](N)C5)cc4)ccc3c2C)cc(C)n1` [Example 120, (S)-(3-aminopyrrolidin-1-yl)(4-(2-(2,6-dimethylpyridin-4-yl)-3-methyl-1H-indol-6-yl)phenyl)methanone], the EC50 was 89.5 nM in assay [1] and 152 nM in assay [2].

On to `Cc1cc(-c2[nH]c3cc(-c4ccc(N5CCN(C(=O)[C@H]6CCCN6)CC5)nc4)ccc3c2C)cc(C)n1` [Example 134, (R)-2-(2,6-dimethylpyridin-4-yl)-3-methyl-6-(6-(4-prolylpiperazin-1-yl)pyridin-3-yl)-1H-indole], for which the EC50 in assay [1] stood at 58.9 nM; in assay [2] it was 41.9 nM.

For the compound `Cc1cc(-c2[nH]c3cc(-c4cccc5c4CNC5)ccc3c2C)cc(C)n1` [Example 19], the EC50 in assay [1] stood at 109 nM; in assay [2], 163 nM.

As for `Cc1cc(-c2[nH]c3cc(-c4ccc(N5CC[C@@H](NCCO)C5)nc4)ccc3c2C)cc(C)n1` [Example 130, (R)-2-((1-(5-(2-(2,6-dimethylpyridin-4-yl)-3-methyl-1H-indol-6-yl)pyridin-2-yl)pyrrolidin-3-yl)amino)ethan-1-ol], the figures for the EC50 in assay [1] and in assay [2] were 18.2 nM and 16.3 nM, respectively.

On to `Cc1cc(-c2[nH]c3cc(-c4ccc(N5CCN(C6COC6)CC5)nc4)ccc3c2C)cc(C)n1` [Example 38], for which the EC50 in assay [1] came to 382 nM; in assay [2], 273 nM.

The values are drawn from patent US20250002471A1 (Gilead Sciences, Inc., priority 2020, published 2025).
